# Literature values, collected in US6624294B2, “Regioselective synthesis of 2′-O-modified nucleosides” (ISIS Pharmaceuticals, Inc., priority 1999, dated 2003).
# Conditions: hydroxylamino function
row,pKa,SMILES
1,4.2,CON [MeONH2]
2,3.65,CON(C)C [MeONHMe2]
3,4.75,CNOC [MeONHMe]
